As usually defined, the IC50 is the point on the concentration scale where inhibition reaches its midpoint. Read a high IC50 as weaker potency.

What all share (assay type): cell-based
Assay [1] concerns the target T1, ER-α (Homo sapiens, UniProt P03372).
T1 construct: endogenous in cells; host or cells: MCF-7
T1 sequence (P03372 1-595): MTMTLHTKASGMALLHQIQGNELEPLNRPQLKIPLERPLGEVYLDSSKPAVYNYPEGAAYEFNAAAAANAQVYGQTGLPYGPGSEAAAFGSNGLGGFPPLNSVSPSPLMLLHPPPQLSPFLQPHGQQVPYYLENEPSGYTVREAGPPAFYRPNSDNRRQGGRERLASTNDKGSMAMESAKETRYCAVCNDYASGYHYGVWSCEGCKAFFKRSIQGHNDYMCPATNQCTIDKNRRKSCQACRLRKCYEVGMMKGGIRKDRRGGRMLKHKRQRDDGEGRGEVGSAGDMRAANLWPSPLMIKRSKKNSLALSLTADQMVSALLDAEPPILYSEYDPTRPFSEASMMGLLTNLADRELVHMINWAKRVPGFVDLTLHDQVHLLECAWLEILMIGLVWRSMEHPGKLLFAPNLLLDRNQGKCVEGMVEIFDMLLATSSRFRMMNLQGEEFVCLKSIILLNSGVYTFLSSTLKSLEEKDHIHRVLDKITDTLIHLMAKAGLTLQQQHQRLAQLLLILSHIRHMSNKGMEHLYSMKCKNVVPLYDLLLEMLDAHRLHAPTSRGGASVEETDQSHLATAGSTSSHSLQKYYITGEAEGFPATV
As to the kind of experiment: ER-α In Cell Western Assay (ER1D5). The note with it: MCF-7 cells, ER1D5 antibody, 4 or 24 hr post compound addition, read-out: ER In-Cell Western Assay (ER1D5); for Emax: MCF7, Max Response; for DC50: IC50. How it is done: (§1) MCF-7 cells were adjusted to a concentration of 200,000 cells per mL in RPMI containing 10% charcoal-stripped FBS and 20 mM HEPES. 16 microliters of the cell suspension (3200 cells) was added to each well of a poly-D-lysine 384 well plate, and the cells were incubated overnight to allow the cells to adhere. The following day an eleven point, serial semilog dilution of each compound was added to the cells in 16 μL at a final concentration ranging from 0.3-0.000003 μM. At 4 or 24 hr post compound addition, the cells were fixed (10% formalin in PBS) for 20 minutes. Cells were permeabalized in PBS 0.1% Triton and blocked with LICOR blocking buffer (50 μl/well, 90′). The wells were then incubated overnight at 4° C. with ER1D5 (Santa Cruz Biotechnology) diluted 1:100 in LICOR blocking buffer/0.1% Tween-20. Wells which were treated with blocking buffer with Tween but no antibody were used as a background control. Wells were washed with 0.1% Tween-20/PBS and then incubated in goat anti-mouse IRDye™ 800CW (LICOR Inc.; 1:1000) and DRAQ5 DNA dye (1:2000 for 2 mM stock) diluted in LICOR blocking buffer containing 0.1% Tween-20 and 0.01% SDS for 60 minutes. Cells were washed (50 μl/well, 5′ each) in 0.1% Tween-20/PBS. Plates were scanned on a LICOR Odyssey infrared imaging system. Integrated intensities in the 800 nm channel and 700 nm channel were measured to determine levels of ER and DNA respectively. Percent ER levels were determined as follows: (Integrated intensity 800 nm sample/integrated intensity 700 nm sample)/(Integrated intensity 800 nm untreated cells/integrated intensity 700 nm untreated cells)×100=% ER levels.

In assay [2] the target is T1, ER-α. In words: ER-α in Cell Western Assay (SP1). The conditions noted are these: MCF-7 cells, SP1 rabbit monoclonal Ab, 4 or 24 hr post compound addition, read-out: ER In-Cell Western Assay (SP1); for Emax: MCF7, Max Response; for DC50: IC50. How it is done: as §1, with “with SP1 rabbit monoclonal Ab (Thermo Scientific)” for “with ER1D5 (Santa Cruz Biotechnology)”, “diluted 1:1000” for “diluted 1:100”, “goat anti-rabbit” for “goat anti-mouse”

Assay [3] has as its system MCF-7 cells. In words: Breast Cancer Cell Viability Assay (MCF7 Viability Assay). The note with it: 5 days' compound exposure, CellTiter-Glo; for IC50: Homo sapiens, MCF7, 120 h. How it is done: MCF-7 cells were adjusted to a concentration of 20,000 cells per mL in RPMI containing 10% FBS and 20 mM HEPES. 16 microliters of the cell suspension (320 cells) was added to each well of a 384 well plate, and the cells were incubated overnight to allow the cells to adhere. The following day an eleven point, serial semilog dilution of each compound was added to the cells in 16 μL at a final concentration ranging from 0.3-0.000003 μM. After 5 days' compound exposure, 16 μL of CellTiter-GLo (Promega, Madison Wis.) was added to the cells the relative luminescence units (RLUs) of each well was determined. CellTiter-Glo added to 32 μL of medium without cells was used to obtain a background value. The Percent viability of each sample was determined as follows: (RLU sample-RLU background/RLU untreated cells-RLU background)×100=% viability.

On to `CC1=C(c2cccc(O)c2)C(c2ccc(OC[C@H](C)N3CC[C@H](C)C3)cc2)Oc2ccc(O)cc21` (stereo partly drawn) [Example 12, 3-(3-Hydroxyphenyl)-4-methyl-2-(4-((S)-2-((S)-3-methylpyrrolidin-1-yl)propoxy)phenyl)-2H-chromen-6-ol], for which, in assay [1], the Emax lay within 40 to 65% and the DC50 was at most 1 nM. Moreover, in assay [2], the Emax is 60 to 85% and the DC50 was at most 1 nM. Moreover, in assay [3], the “MCF7 Viability Assay Max Response” value is “++ (++ = a single % value ≧50%)” and the half-maximal inhibitory concentration (IC50) was at most 1 nM.

`CCN(CC)CCOc1ccc(C2Oc3ccc(O)cc3C(C)=C2c2cccc(O)c2)cc1` (stereo not shown) [Example 5, 2-(4-(2-(Diethylamino)ethoxy)phenyl)-3-(3-hydroxyphenyl)-4-methyl-2H-chromen-6-ol]: in assay [1], the Emax was under 40% and the DC50 was over 1 nM. In assay [2], the Emax was under 60% and the DC50 is at most 1 nM. Further, in assay [3], the “MCF7 Viability Assay Max Response” value is reported as “++ (++ = a single % value ≧50%)” and the IC50 is at most 1 nM.

Take `CC1=C(c2ccc(F)cc2)[C@@H](c2ccc(OC[C@H](C)N3CC[C@@H](C)C3)cc2)Oc2ccc(O)cc21` (single isomer, unassigned) [Example 30b]: in assay [2], the Emax fell in the range of 60 to 85% and the DC50 is over 1 nM. Also, in assay [3], the “MCF7 Viability Assay Max Response” value was “++ (++ = a single % value ≧50%)” and the IC50 is over 1 nM.

On to `CC1=C(c2cccc(O)c2)C(c2ccc(OC[C@H](C)N3C4CCC3CC4)cc2)Oc2ccc(O)cc21` (stereo partly drawn) [Example 67, 2-(4-((S)-2-(7-Azabicyclo[2.2.1]heptan-7-yl)propoxy)phenyl)-3-(3-hydroxyphenyl)-4-methyl-2H-chromen-6-ol], for which, in assay [2], the Emax is under 60% and the DC50 is at most 1 nM. Further, in assay [3], the “MCF7 Viability Assay Max Response” value is “++ (++ = a single % value ≧50%)” and the IC50 is at most 1 nM.

Turning to `CC1=C(c2cc(O)c(F)c(F)c2)C(c2ccc(OC[C@H](C)N3CC[C@@H](C)C3)cc2)Oc2ccc(O)cc21` (stereo partly drawn) [Example 49, 3-(3,4-Difluoro-5-hydroxyphenyl)-4-methyl-2-(4-((S)-2-((R)-3-methylpyrrolidin-1-yl)propoxy)phenyl)-2H-chromen-6-ol], in assay [2], the Emax was at least 85% and the DC50 is at most 1 nM. Further, in assay [3], the “MCF7 Viability Assay Max Response” value was “++ (++ = a single % value ≧50%)” and the IC50 was at most 1 nM.

Turning to `CC1=C(c2ccc(O)c(C)c2)C(c2ccc(OC[C@H](C)N3CC[C@@H](C)C3)cc2)Oc2ccc(O)cc21` (stereo partly drawn) [Example 42, 3-(4-Hydroxy-3-methylphenyl)-4-methyl-2-(4-((S)-2-((R)-3-methylpyrrolidin-1-yl)propoxy)phenyl)-2H-chromen-6-ol], in assay [2], the Emax is at least 85% and the DC50 was at most 1 nM. Also, in assay [3], the “MCF7 Viability Assay Max Response” value is given as “++ (++ = a single % value ≧50%)” and the IC50 is at most 1 nM.

With `CC1=C(c2cc(O)ccc2F)C(c2ccc(OC[C@H](C)N3CC[C@@H](C)C3)cc2)Oc2ccc(O)cc21` (stereo partly drawn) [Example 62, 3-(2-Fluoro-5-hydroxyphenyl)-4-methyl-2-(4-((S)-2-((R)-3-methylpyrrolidin-1-yl)propoxy)phenyl)-2H-chromen-6-ol], in assay [2], the Emax was at least 85% and the DC50 is at most 1 nM. For the same compound, in assay [3], the “MCF7 Viability Assay Max Response” value is “++ (++ = a single % value ≧50%)” and the IC50 is at most 1 nM.

As to `CC1=C(c2ccc(F)cc2F)C(c2ccc(OC[C@H](C)N3CC[C@@H](C)C3)cc2)Oc2ccc(O)cc21` (stereo partly drawn) [Example 52, 3-(2,4-Difluorophenyl)-4-methyl-2-(4-((S)-2-((R)-3-methylpyrrolidin-1-yl)propoxy)phenyl)-2H-chromen-6-ol], in assay [2], the Emax lay in the range of 60 to 85% and the DC50 was at most 1 nM. Further, in assay [3], the “MCF7 Viability Assay Max Response” value is on record as “++ (++ = a single % value ≧50%)” and the IC50 is at most 1 nM.

Regarding `CC1=C(c2ccc(F)cc2)C(c2ccc(OC[C@H](C)N3CCC[C@H]3C)cc2)Oc2ccc(O)cc21` (stereo partly drawn) [Example 63, 3-(4-Fluorophenyl)-4-methyl-2-(4-((S)-2-((R)-2-methylpyrrolidin-1-yl)propoxy)phenyl)-2H-chromen-6-ol], in assay [2], the Emax lay within 60 to 85% and the DC50 is at most 1 nM. Further, in assay [3], the “MCF7 Viability Assay Max Response” value is “++ (++ = a single % value ≧50%)” and the IC50 is at most 1 nM.

Take `CC1=C(c2cccc(O)c2)C(c2ccc(OC[C@H](C)n3cnc(C)c3)cc2)Oc2ccc(O)cc21` (stereo partly drawn) [Example 51, 3-(3-Hydroxyphenyl)-4-methyl-2-(4-((S)-2-(4-methyl-1H-imidazol-1-yl)propoxy)phenyl)-2H-chromen-6-ol]: in assay [2], the Emax fell in the range of 60 to 85% and the DC50 is at most 1 nM. For the same compound, in assay [3], the “MCF7 Viability Assay Max Response” value is recorded as “++ (++ = a single % value ≧50%)” and the IC50 was at most 1 nM.

Consider `CC1=C(c2cccc(O)c2C)C(c2ccc(OC[C@H](C)N3CC[C@@H](C)C3)cc2)Oc2ccc(O)cc21` (stereo partly drawn) [Example 40, 3-(3-Hydroxy-2-methylphenyl)-4-methyl-2-(4-((S)-2-((R)-3-methylpyrrolidin-1-yl)propoxy)phenyl)-2H-chromen-6-ol], for which, in assay [2], the Emax was 60 to 85% and the DC50 was at most 1 nM. Besides, in assay [3], the “MCF7 Viability Assay Max Response” value is reported as “++ (++ = a single % value ≧50%)” and the IC50 is at most 1 nM.

For `CC1=C(c2ccc(O)c(C(F)(F)F)c2)C(c2ccc(OC[C@H](C)N3CC[C@@H](C)C3)cc2)Oc2ccc(O)cc21` (stereo partly drawn) [Example 69, 3-(4-Hydroxy-3-(trifluoromethyl)phenyl)-4-methyl-2-(4-((S)-2-((R)-3-methylpyrrolidin-1-yl)propoxy)phenyl)-2H-chromen-6-ol], in assay [2], the Emax was in the range of 60 to 85% and the DC50 is at most 1 nM. In addition, in assay [3], the “MCF7 Viability Assay Max Response” value was “++ (++ = a single % value ≧50%)” and the IC50 is over 1 nM.

The record behind these values is patent publication US9078871B2, “Estrogen receptor modulators and uses thereof” (SERAGON PHARMACEUTICALS, INC., priority 2010, dated 2015).
